Experimental data published in US20170246166A1, “1,2-BENZOTHIAZOLE COMPOUNDS FOR THE TREATMENT OF KIDNEY DISORDERS” (priority 2014, published 2017).

Columns and labels:
[1] = system: PKC; assay: Cell-based assay of PKC inhibition (PKC substrate phosphorylation in THP-1 cells); conditions: human THP-1 cells, 1.5 h compound, then 20 nM PMA for 30 min; read-out: absolute IC50, PKC substrate phosphorylation
Description: The purpose of this assay is to test the inhibitory effects of a test compound on PKC in a cell-based system by measuring the level of PKC substrate phosphorylation.
Staurosporin may be used as a positive control. It is prepared in DMSO to make up a […] solution and then serially diluted in plain RPMI 1640 culture medium (10 μM-0.0005 μM) to obtain a ten-point dilution curve. Test compounds are prepared in the same manner.
THP-1 cells (human macrophage cell line) are obtained from ATCC (ATCC TIB-202 lot 4028542). The cells are cultured in 96-well plates coated with poly-d-lysine (Becton Dickinson) with seeding density of 4000 cells/well in RPMI 1640 culture medium (Gibco) with 1% fetal bovine serum (Gibco). […]
After the incubation, the cells are first fixed in the Prefer fixative (ANATECH LTD) for 30 min at room temperature. […] Plates are scanned with an ACUMEN EXPLORER™ Laser-scanning fluorescence microplate cytometer (TTP LABTECH LTD), with 488 nm laser excitation to detect emission fluorescence at 655 nm-705 nm (emission of DNA bound propidium iodide) for cell counting/well, and emission of 505 nm-530 nm fluorescence of antibody binding to phosphorylated PKC substrates in cells. The main assay output is a ratio of total fluorescence of phosphorylated PKC substrates to total cell number (ratio=total intensity/total cell number). […]

[2] = system: persons with type 2 diabetes and nephropathy; conditions: in combination with an ACE inhibitor, ARB, or both; cited from earlier work

SMILES	IC50 [1]	effects on albuminuria and renal function [2]
CN(C)C[C@@H]1CCn2cc(c3ccccc32)C2=C(C(=O)NC2=O)c2cn(c3ccccc23)CCO1 [ruboxistaurin]		favorable effects on albuminuria and renal function
